Results from patent publication US20230104487A1, “11-(4-CHLOROPHENYL)-4-(2,3-DIHYDRO-1H-INDOLE-1-CARBONYL)-3,11-DIMETHYL-5,10,DIOXATRICYCLO[7.4.0.0,2,6,]TRIDECA-1,3,6,8-TETRAEN-13-ONE AND DERIVATIVES AS DESTABILIZER OF CRY1 FOR THE TREATMENT OF CIRCADIAN RHYTHM ASSOCIATED DISEASES AND DISORDERS” (KOC UNIVERSITESI, priority 2019, published 2023).
Entries after “also recorded” stand apart in the source; their conditions may differ.

How the values were obtained:
CRY1 = molecular target: T1, CRY1 (Mus musculus, UniProt P97784); experiment: CRY1 level in mouse liver (whole cell lysate, cytosolic and nuclear fraction); assay type: in vivo; parameters: from tissue; host or cells: liver of C57BL/6J mice; settings: 25 and 50 mg/kg i.p., 6 h
T1 sequence (P97784 1-606): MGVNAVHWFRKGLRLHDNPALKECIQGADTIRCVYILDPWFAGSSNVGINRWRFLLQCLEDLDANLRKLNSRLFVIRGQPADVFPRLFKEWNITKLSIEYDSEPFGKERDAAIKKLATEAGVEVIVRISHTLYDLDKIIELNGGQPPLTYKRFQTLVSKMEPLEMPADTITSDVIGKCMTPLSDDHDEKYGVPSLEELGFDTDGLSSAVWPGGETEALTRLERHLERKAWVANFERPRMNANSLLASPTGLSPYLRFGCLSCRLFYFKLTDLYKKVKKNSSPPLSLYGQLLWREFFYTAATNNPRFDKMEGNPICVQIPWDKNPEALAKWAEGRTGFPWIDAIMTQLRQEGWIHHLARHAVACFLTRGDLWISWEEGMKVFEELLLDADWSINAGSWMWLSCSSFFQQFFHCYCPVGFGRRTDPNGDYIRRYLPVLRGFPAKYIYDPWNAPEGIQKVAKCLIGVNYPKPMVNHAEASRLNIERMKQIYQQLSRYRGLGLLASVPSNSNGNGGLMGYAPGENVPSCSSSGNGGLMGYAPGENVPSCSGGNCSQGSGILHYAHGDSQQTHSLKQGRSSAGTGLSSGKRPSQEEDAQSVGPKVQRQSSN
Experimental: FIGS. 5A-5G are an illustration of FORMULA I decreased the nuclear CRY1 in mice liver. FORMULA I (25 mg/kg or 50 mg/kg) or vehicle intraperitoneally administered to C57BL/6J mice. 6 h after the treated mice were sacrificed (n=3). […] FIGS. 5A-5B show an effect of FORMULA I in WCL. FIG. 5C-5D show an effect of FORMULA I in cytosolic fraction. FIGS. 5E-5F show an effect of FORMULA I in nuclear fraction of muce liver. […] (Data represent the mean±SEM, n=3 (with duplicates in RT-PCR) *: p<0.05 versus control by student t-test).
Cells were lysed in RIPA buffer (50 mM Tris, 150 mM NaCl, 1% Triton-X, 0.1% SDS) with fresh Protease inhibitor cocktail (PIC). After centrifugation at 13000 rpm for 15 minutes at 4° C., supernatant was used to determine the protein amount using Pierce Protein Assay (Thermo Scientific) according to the manufacturer's instruction. Mice liver samples were homogenized and lysed with Dounce homogenizer and RIPA buffer. After homogenization samples were incubated 10 minutes on ice. After centrifugation 13000 rpm 15 minutes at 4° C. supernatant was used for the whole cell lysate. Subcellular fractionation of liver samples: Liver samples were homogenized with cytosolic lysis buffer (10 mM HEPES pH 7.9, 10 mM KCl, 0.1 mM EDTA, 0.05% NP40, proteasome inhibitor) by pipetting 40 times with a cut tip. Then samples were incubated 10 minutes on ice and centrifuged for 3 minutes at 3000 rpm at 4° C. Supernatant was saved in a new tube, and pellet was processed for the nuclear fraction. Supernatant was centrifuged at 13000 rpm for 3 minutes at 4° C. where new supernatant saved as the cytosolic fraction. […] ECL buffer system (Advansta WesternBright) was used to visualize HRP chemi-luminescence via BioRad ChemiDoc Touch visualizer. […]
Since CRYs are stabilized and degraded differently in cytosolic and nuclear compartments, we further analyzed the level of CRY1 in the cytosolic and nuclear fraction of the mouse liver. […]

C57BL/6J mice = experiment: Repeated dose toxicity study, 14-day subacute toxicity; assay type: in vivo; settings: 60 mg/kg i.p. for 14 days
Experimental: According to the results of the 5-day maximum tolerated dose determination study, FORMULA I dose was determined as 60 mg/kg for the next 14-day subacute toxicity study. In this study, C57BL/6J mice (n=10) were treated with 60 mg/kg dose of FORMULA I intraperitoneally for 14 days. Control mice (n=5) were only treated with vehicle. Following this, aforementioned procedure (5-day maximum tolerated dose determination study) has been conducted in the same way.

Cc1c(C(=O)N2CCc3ccccc32)oc2ccc3c(c12)C(=O)CC(C)(c1ccc(Cl)cc1)O3 (centres unmarked) [FORMULA I, 11-(4-chlorophenyl)-4-(2,3-dihydro-1H-indole-1-carbonyl)-3,11-dimethyl-5,10,dioxatricyclo[7.4.0.0,2,6,]trideca-1,3,6,8-tetraen-13-one]
CRY1 level in cytosolic fraction of liver (CRY1): not statistically significant compared to controls; also recorded: slightly decreased the CRY1 levels
CRY1 level in nuclear fraction of liver (CRY1): significantly low compared to controls in dose dependent manner; also recorded: decreased the nuclear CRY1 level significantly; also recorded: selectively decrease CRY1 level in the nucleus
CRY1 level in whole cell lysate of liver (CRY1): slight decrease in CRY1 levels; also recorded: slightly decreased the CRY1 levels
body temperature (mild hypothermia) (C57BL/6J mice; during injections): 33.7-35.4 °C
highest mean body weight loss (C57BL/6J mice; first day following administration): 3.7%
